Data reported in patent publication EP3325480B1, “5-SUBSTITUTED-7-[4-(SUBSTITUTED) BENZYL]AMINO-3-ISOPROPYLPYRAZOLO (4,3-D) PYRIMIDINES AS MEDICAMENTS” (Ustav experimentalni botaniky AV CR, v.v.i., priority 2015, dated 2017).

Experiments:
[1] = system: neutrophils; assay: Measurement of neutrophil apoptosis (Annexin V FITC / propidium iodide, flow cytometry); format: cell-based; conditions: 10 nM, 8 h, isolated human neutrophils, Annexin V positive / PI negative cells taken as apoptotic
Source text: The neutrophils were isolated from the peripheral blood of healthy human donors as described previously (Afford et al 1992). Briefly, blood was collected into tubes containing EDTA followed by usage of 2% dextran solution for sedimentation of erythrocytes. The neutrophils were then isolated from leukocyte layer using a discontinuous Percoll density gradient centrifugation (Sigma- Aldrich, Poole, UK) and resuspended in RPMI 1640 medium (Sigma- Aldrich) supplemented with 10% heat-inactivated fetal bovine serum (Sera Laboratories International, Bolney, UK), 2 mM glutamine, 100 U/ml penicillin and 100 µg/ml streptomycin (Sigma-Aldrich). The purity of isolated neutrophils was assessed by Giemsa staining (Diff-Quick, Baxter Healthcare, UK) and light microscopy and was routinely greater than 97%. The neutrophils were then cultured in the presence of novel compounds (single concentration of 10 nM, or several increasing concentrations ranging from 10 nM to 1 µM) and other stimulating factors for 8 h.
For evaluation of early apoptosis, neutrophils were double stained with anti-Annexin V FITC-conjugated antibody (BD Pharmingen) binding extracellular phosphatidylserine and propidium iodide detecting late apoptotic and necrotic cells. After appropriate treatment, cells were washed with PBS and then resuspended in 100 µl of Annexin V buffer (10 mM HEPES, pH 7.4; 140 mM NaCl; 2.5 mM CaCl2). 1 µl of anti-Annexin V FITC-conjugated antibody was added and cells were then incubated at room temperature for 10 minutes followed by addition of propidium iodide at final concentration of 5 µg/ml. Fluorescence was analyzed by flow cytometry (BD Accuri C6 Flow Cytometer, Accuri Cytometers Inc.) with Annexin V positive / PI negative cells taken as apoptotic.

[2] = system: neutrophils; assay: Superoxide generation assay (luminol-based chemiluminescent assay, fMLP stimulus); format: cell-based; conditions: isolated human neutrophils, GM-CSF present, compound 1 h, fMLP 2.5 µM, luminol 100 µM (Figure 2)
Protocol: Isolated human neutrophils were incubated in the presence of prosurvival factor GM-CSF with or without the compound at indicated concentrations for 1 h.
Levels of reactive oxygen species (ROS) generated by neutrophils were measured using a luminol-based chemiluminescent assay (Gyllenhammar 1987). After treatment, neutrophils were resuspended in Hank's Balanced Salt Solution (HBSS) containing calcium and magnesium (Gibco) and transferred to opaque 96 well plates (Greiner Bio-One GmbH). Luminol was then added to each well at final concentration of 100 µM followed by a measuring of chemiluminescence in response to the stimulus fMLP (2.5 µM) at 1 min intervals for 30 min by means of a luminometer (Centro LB 960, Berthold Technologies, Bad Wildbad, Germany).

Row | SMILES | % of apoptotic cells [1] [%] | neutrophil oxygen radical production induced by fMLP [2]
1 | CC(CCO)Nc1nc(NCc2ccc(-c3cccs3)cc2)c2[nH]nc(C(C)C)c2n1 (racemic) [compound 44] | 38 | –
2 | CC(C)c1n[nH]c2c(Cl)nc(S(C)(=O)=O)nc12 [compound 1, 7-Chloro-3-isopropyl-5-methylsulfonyl-1H-pyrazolo[4,3-d]pyrimidine] | 32 | –
3 | CC(C)c1n[nH]c2c(NCc3ccc(-c4ccco4)cc3)nc(S(C)(=O)=O)nc12 [compound 2, 3-Isopropyl-5-methylsulfonyl-7-[4-(furan-2-yl)benzyl]amino-1H-pyrazolo[4,3-d]pyrimidine] | 41 | –
4 | CC(C)c1n[nH]c2c(NCc3ccc(-c4cccs4)cc3)nc(S(C)(=O)=O)nc12 [compound 3, 3-Isopropyl-5-methylsulfonyl-7-[4-(thiophen-2-yl)benzyl]amino-1H-pyrazolo[4,3-d]pyrimidine] | 58 | –
5 | CC(C)c1n[nH]c2c(NCc3ccc(-n4cccn4)cc3)nc(S(C)(=O)=O)nc12 [compound 6, 3-Isopropyl-5-methylsulfonyl-7-[4-(1H-pyrazol-1-yl)benzyl]amino-1H-pyrazolo[4,3-d]pyrimidine] | 36 | –
6 | CC(C)c1n[nH]c2c(NCc3ccc(-c4ccco4)cc3)nc(NCCO)nc12 [compound 7] | 47 | –
7 | CC(C)c1n[nH]c2c(NCc3ccc(-c4ccco4)cc3)nc(NCC(O)CN)nc12 (stereo not shown) [compound 15, 3-Isopropyl-5-(3-amino-2-hydroxypropyl)amino-7-[4-(furan-2-yl)benzyl]amino-1H-pyrazolo[4,3-d]pyrimidine] | 52 | inhibits
8 | CC(C)c1n[nH]c2c(NCc3ccc(-c4ccco4)cc3)nc(NCCCCCCN)nc12 [compound 30] | 39 | –
9 | CC(C)c1n[nH]c2c(NCc3ccc(-c4ccco4)cc3)nc(NCC(C)(C)O)nc12 [compound 31, 3-Isopropyl-5-(2-hydroxy-2-methylpropyl)amino-7-[4-(furan-2-yl)benzyl]amino-1H-pyrazolo[4,3-d]pyrimidine] | 50 | –
10 | CC(C)c1n[nH]c2c(NCc3ccc(-c4cccs4)cc3)nc(NCC(C)(C)O)nc12 [compound 32, 3-Isopropyl-5-(2-hydroxy-2-methylpropyl)amino-7-[4-(thiophen-2-yl)benzyl]amino-1H-pyrazolo[4,3-d]pyrimidine] | 48 | –
11 | CC(C)c1n[nH]c2c(NCc3ccc(-c4cccs4)cc3)nc(NCCC(C)(C)O)nc12 [compound 33] | 36 | –
12 | CC(C)c1n[nH]c2c(NCc3ccc(-c4cccs4)cc3)nc(NCC(O)CO)nc12 (stereo not shown) [compound 34] | 52 | –
13 | CC(C)c1n[nH]c2c(NCc3ccc(-c4cccs4)cc3)nc(NC[C@H](C)O)nc12 [compound 42] | 57 | –
14 | CC(C)c1n[nH]c2c(NCc3ccc(-c4cccs4)cc3)nc(N[C@H](C)CCO)nc12 [compound 45] | 33 | –
15 | CC(C)c1n[nH]c2c(NCc3ccc(-n4cccn4)cc3)nc(NCCCCN)nc12 [compound 58] | 44 | –
16 | CC(C)c1n[nH]c2c(NCc3ccc(-n4cccn4)cc3)nc(NCCCCCN)nc12 [compound 59] | 49 | –
17 | CC(C)c1n[nH]c2c(NCc3ccc(-n4cccn4)cc3)nc(NCCCCCCN)nc12 [compound 60] | 60 | –
18 | CC(C)c1n[nH]c2c(NCc3ccc(-n4cccn4)cc3)nc(NCC(O)CN)nc12 (stereo not shown) [compound 61, 3-Isopropyl-5-(3-amino-2-hydroxypropyl)amino-7-[4-(1H-pyrazol-1-yl)benzyl]amino-1H-pyrazolo[4,3-d]pyrimidine] | 40 | –
19 | CCN(CC)CCNc1nc(NCc2ccc(N3CCCC3)cc2)c2[nH]nc(C(C)C)c2n1 [compound 63] | 39 | –
20 | CCN(CC)C(C)CCNc1nc(NCc2ccc(N3CCCC3)cc2)c2[nH]nc(C(C)C)c2n1 (stereo not shown) [compound 65] | 56 | –
21 | CC(C)c1n[nH]c2c(NCc3ccc(N4CCCC4)cc3)nc(NCC(C)(C)O)nc12 [compound 66] | 34 | –
